The source of these data is PMC5802278, “Molecular and cellular mechanisms of HIF prolyl hydroxylase inhibitors in clinical trials” (Chemical Science, 2017).

Read-outs that look alike come from different tables or passages of the source.

In test [1] the test system is patients with haemodialysis CKD, Hb 9.5-12.0 g/dL. Set-up: method as in ref 42 (a number printed in a supplementary file, which may have a reference list of its own: not looked up in the article's list). Conditions: 5 mg daily, 4 weeks; cited from earlier work.
Test [2] relates to patients with NDD CKD stage 3-5 and Hb 8.5-11.0 g/dL. Set-up: method as in ref 42 (a number printed in a supplementary file, which may have a reference list of its own: not looked up in the article's list). Particulars: highest dose (5 mg) daily, over 4 weeks; cited from earlier work.
The subject of test [3] is subjects with non-dialysis CKD stage 3-5 and Hb < 10.5 g/dL. Set-up: method as in ref 39 (a number printed in a supplementary file, which may have a reference list of its own: not looked up in the article's list). Particulars: all Molidustat doses (25, 50, 75 mg daily; 25, 50 mg BID), 16 weeks; cited from earlier work.
For test [4], the system named is HIF target genes in Hep3b cells. Nature of the test: RT-qPCR of HIF target genes. Conditions: 24 hours, 2.5 or 10 μM. The class given is cell-based, human. Here is the method:
The upregulation of HIF-α isoforms has multiple downstream effects.[1],[30],[86],[87] To investigate whether the inhibitors have differential effects on HIF target genes we measured their mRNA levels for a set of HIF target genes after 24 hours in Hep3b cells. The panel aimed to cover a small, yet representative, HIF target gene set. […]. […]. page 16:
Cells were lysed using the TRI reagent® (Sigma T9424). RNA was then extracted by phase separation following the manufacturer’s protocol. Extracted RNA was treated with the RNase-free DNase I (DNA-free™ DNA Removal Kit, Applied Biosystems AM1906) to eliminate contaminating DNA. For reverse transcription, 1μg of DNase-treated RNA samples were used for cDNA synthesis using High-Capacity cDNA Reverse Transcription Kit (Thermo Fisher Scientific 4368814). […] Quantitation of 18 relative expression level was analyzed using the ΔΔCT method with HPRT as a reference gene using; statistical analyses of the biological and technical repeats were calculated using StepOne Software (version 2.2.2). […]
Cell seeding and inhibitor treatments were performed in parallel in the same manner as used for the HRE reporter assay (see above). […] Fluorescence signals were measured with an excitation wavelength of 544 nm and emission wavelength of 590 nm using a FLUOstar Omega Microplate Reader (BMG

Test [5] has as its system patients with anaemia secondary to CKD stage 3 or 4. Set-up: method as in ref 32 (a number printed in a supplementary file, which may have a reference list of its own: not looked up in the article's list). Particulars: 6 weeks, cited from earlier work.
Test [6] concerns patients with ESRD on haemodialysis and previously with Epoetin Alfa. Set-up: method as in ref 38 (a number printed in a supplementary file, which may have a reference list of its own: not looked up in the article's list). Particulars: TIW, 7 weeks, cited from earlier work.
The test system of test [7] is patients with NDD CKD (stage 3 or 4) and Hb ≤ 10.5 g/dL. The arrangement: method as in ref 36 (a number printed in a supplementary file, which may have a reference list of its own: not looked up in the article's list). Particulars: after 16 weeks of treatment, 143 subjects evaluable for efficacy; cited from earlier work.
For test [8], the system named is NDD-CKD subjects with Hb ≤ 11.0 g/dL. Set-up: method as in ref 34 (a number printed in a supplementary file, which may have a reference list of its own: not looked up in the article's list). Particulars: 4 weeks, cited from earlier work.
For test [9], the system named is patients with ESRD and Hb ≤ 10.0 g/dL. The arrangement: method as in ref 37 (a number printed in a supplementary file, which may have a reference list of its own: not looked up in the article's list). Particulars: cited from earlier work.
The subject of test [10] is patients with stable end-stage renal disease (ESRD) treated with haemodialysis. The arrangement: method as in ref 35 (a number printed in a supplementary file, which may have a reference list of its own: not looked up in the article's list). Conditions: cited from earlier work.
In test [11] the test system is patients with NDD CKD and Hb < 10.0 g/dL. Set-up: method as in ref 38 (a number printed in a supplementary file, which may have a reference list of its own: not looked up in the article's list). Conditions: TIW, 9 weeks, cited from earlier work.

`O=C(O)CNC(=O)C1C(=O)N(C2CCCCC2)C(=O)N(C2CCCCC2)C1=O` [GSK1278863]: the “Hb level maintenance after switch from rhEPO” value in test [1] was “maintained”. In test [2], the Hb increase was ~ 1.0 g/dL.

Take `O=c1c(-n2ccnn2)c[nH]n1-c1cc(N2CCOCC2)ncn1` [Molidustat]: in [3], the Hb increase result is on record as “at least 1.14 g/dL”.

For `O=C(O)CNC(=O)c1ncc(-c2cccc(Cl)c2)cc1O` [Vadadustat], the “upregulation of assayed HIF target genes” value in [4] was “failed to obviously upregulate assayed HIF target genes”. Further, the “subjects with Hb increase ≥ 1 g/dL from baseline” value in test [5] (240 mg daily) was 31%; in test [5] (370 mg daily), 40%; in [5] (500 mg daily), 65%; in [5] (630 mg daily), 78%.

With `Cc1nc(C(=O)NCC(=O)O)c(O)c2ccc(Oc3ccccc3)cc12` [FG-4592], the Hb levels maintained in [6] (high-dose cohort) is listed as 100%; in [6] (low-dose cohort) it was 59.1%; in test [6] (medium-dose cohort) it was 88.9%. For the same molecule, the “subjects with Hb increase ≥ 1 g/dL from baseline and Hb of ≥ 11.0 g/dL (Hb response) by week 17” value in test [7] was 91.6%. Moreover, the “subjects with Hb increase ≥ 1 g/dL from baseline” value in test [8] (0.7 mg/kg BIW) is on record as 30%; in test [8] (0.7 mg/kg TIW) it was 58%; in [8] (1.0 mg/kg BIW), 60%; in test [8] (1.0 mg/kg TIW) it was 40%; in test [8] (1.5 mg/kg BIW), 80%; in test [8] (1.5 mg/kg TIW), 91%. The “subjects with Hb increase ≥ 1 g/dL from baseline” value in test [8] (2.0 mg/kg BIW) is listed as 100%; in test [8] (2.0 mg/kg TIW), 100%; in test [11] (high-dose cohort), 87.1%; in test [11] (low-dose cohort), 80%. In test [9] (all Roxadustat treated subjects, 12 weeks), the “subjects with Hb increase ≥ 1 g/dL (Hb response) from baseline” value was 96%. For the same molecule, the “median time to Hb response” value in test [9] (each cohort) was 3 weeks. Also, the “subjects with Hb increase ≥ -0.5 g/dL from baseline” value in [10] (Part 1, 6-week treatment, Roxadustat 1.5-2.0 mg/kg pool versus Epoetin Alfa arm) was 79%. Further, the “average Roxadustat for Hb level maintenance (mean Hb ≥ 11.0 g/dL during last 4 weeks of treatment)” value in test [10] (Part 2, 19-week treatment) was 1.68 ± 0.65 mg/kg TIW.
